Target: hAC2 (Homo sapiens, UniProt Q08462)
Test: stimulation of adenylate cyclase activity, HTRF cAMP assay
Type: biochemical
Details: 25 μM forskolin alone, no Gsα, no serum; 1 mM ATP, 2 mM MgCl2, pH 7.5

Sequence of hAC2 (Q08462 whole entry): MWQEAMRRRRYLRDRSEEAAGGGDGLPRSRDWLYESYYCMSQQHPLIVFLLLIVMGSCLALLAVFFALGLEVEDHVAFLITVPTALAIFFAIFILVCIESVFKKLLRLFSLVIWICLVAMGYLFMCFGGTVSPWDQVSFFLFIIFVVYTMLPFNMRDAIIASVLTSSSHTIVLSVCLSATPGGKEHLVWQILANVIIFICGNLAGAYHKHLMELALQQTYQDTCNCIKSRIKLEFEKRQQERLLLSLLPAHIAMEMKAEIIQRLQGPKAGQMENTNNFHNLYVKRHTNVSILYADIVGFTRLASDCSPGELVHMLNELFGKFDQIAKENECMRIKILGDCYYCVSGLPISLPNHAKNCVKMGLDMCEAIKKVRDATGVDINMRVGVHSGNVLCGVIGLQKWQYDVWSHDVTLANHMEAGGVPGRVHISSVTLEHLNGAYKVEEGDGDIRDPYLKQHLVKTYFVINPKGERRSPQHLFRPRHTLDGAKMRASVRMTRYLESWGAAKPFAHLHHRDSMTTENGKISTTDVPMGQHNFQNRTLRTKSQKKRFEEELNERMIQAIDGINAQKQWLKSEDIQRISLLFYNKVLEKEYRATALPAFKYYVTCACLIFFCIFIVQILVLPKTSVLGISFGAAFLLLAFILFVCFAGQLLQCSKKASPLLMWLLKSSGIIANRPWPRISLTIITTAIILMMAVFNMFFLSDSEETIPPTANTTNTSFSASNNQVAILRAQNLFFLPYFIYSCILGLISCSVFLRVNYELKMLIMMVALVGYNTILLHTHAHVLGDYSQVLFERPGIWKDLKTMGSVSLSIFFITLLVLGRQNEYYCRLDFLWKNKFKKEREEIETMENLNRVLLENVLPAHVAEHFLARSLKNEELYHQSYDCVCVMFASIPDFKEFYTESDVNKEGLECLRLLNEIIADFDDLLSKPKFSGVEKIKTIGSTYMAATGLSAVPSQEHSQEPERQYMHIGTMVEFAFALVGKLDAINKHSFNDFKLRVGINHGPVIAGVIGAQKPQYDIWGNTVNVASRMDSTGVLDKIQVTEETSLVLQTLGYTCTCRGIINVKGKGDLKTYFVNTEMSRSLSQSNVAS

- fold stimulation at 25 μM: ~ 2.4 fold
Structure (SMILES): C=C[C@@]1(C)CC(=O)[C@]2(O)[C@@]3(C)[C@@H](O)CCC(C)(C)[C@@H]3[C@H](O)[C@H](OC(C)=O)[C@@]2(C)O1 [forskolin]

From article doi:10.1101/694877v2 (biorxiv, 2019)
